Results on six compounds are retold here after patent US7038014B2, “Polycation-sensing receptor in aquatic species and methods of use thereof” (Brigham and Women's Hospital, priority 1996, dated 2006).

Values joined by “and” are separate entries in the source; they are usually repeats but may differ in a detail not shown here. Equal values may be shown once. Read-outs that look alike come from different tables or passages of the source.

One test has as its system SKCaR (SEQ ID NO.: 2). In words: FURA 2 intracellular calcium assay of SKCaR activation in transfected HEK cells. It is filed as cell-based, dogfish shark (Squalus acanthias). From the text:
SKCaR cDNA (SEQ ID NO.: 1) was ligated into the mammalian expression vector PCDNA II and transfected into HEK cells using standard techniques. The presence of SKCaR protein (SEQ ID NO.: 2) in transfected cells was verified by western blotting. Activation of SKCaR (SEQ ID NO.: 2) by extracellular Ca2+, Mg2+ or NaCl was quantified using a well characterized FURA 2 based assay where increases in intracellular Ca2+ produced by SKCaR activation are detected using methodology published previously the Dr. E. Brown's laboratory (Bai, M., S. Quinn, S. Trvedi, O. Kifor, S. H. S. Pearce, M. R. Pollack, K. Krapcho, S. C. Hebert and E. M. Brown. Expression and characterization of inactivating and activating mutations in the human Ca2+-sensing receptor. J. Biol. Chem., 32:19537–19545 (1996)) and expressed as % normalized intracellular calcium response to receptor activation.

Test [1] has as its system isolated urinary bladder of winter flounder (PVCR; thiazide-sensitive NaCl cotransporter). The experiment in a line: Water reabsorption (Jv) in isolated winter flounder urinary bladder, gravimetric. It is filed as cell-based, winter flounder (Pseudopleuronectes americanus). Particulars: for water reabsorption (Jv): control Jv 130±28; for inhibition of water reabsorption: application of agent, concentration not stated (summary); for IC50: read-out: half maximal inhibitory concentration for urinary bladder Jv (IC50); for reversibility of inhibitory effect on Jv: upon removal of agonist. As for the experimental part:
To provide further evidence linking Aquatic PVCRs to fish osmoregulation, isolated urinary bladder of winter founder was used to investigate whether PVCRs modulate epithelial cell ion transport. […] Water reabsorption from the urine stored in urinary bladder allows for the concentrations of both Mg^2+ and Ca^2+ to increase to values as high as 84 mM and 7 mM respectively in marine founders (Elger, E. B., et al., J. Como. Physiol., B157:21 (1987)). 5 Net apical to basolateral water flux (Jv) was measured gravimetrically in 10 minute intervals using individual urinary bladder excised from winter flounder. […] The weight of the bladder was measured before and after the experimental period, wherein the experimental period comprised the period of time that the isolated bladder was exposed to test compound. The compound to be tested (e.g., test compound) was added to both serosal and mucosal solutions. The bladders were dried and weighted as described in Renfro et al. The difference in bladder weight prior to and after exposure to test compound is an indication of water reabsorption by the bladder.
Endocrinol. 127:1064–1071 (1990). […]

In another test the target is T1, mammalian CaRs (Bos taurus, UniProt P35384).
T1 sequence (P35384 20-1085): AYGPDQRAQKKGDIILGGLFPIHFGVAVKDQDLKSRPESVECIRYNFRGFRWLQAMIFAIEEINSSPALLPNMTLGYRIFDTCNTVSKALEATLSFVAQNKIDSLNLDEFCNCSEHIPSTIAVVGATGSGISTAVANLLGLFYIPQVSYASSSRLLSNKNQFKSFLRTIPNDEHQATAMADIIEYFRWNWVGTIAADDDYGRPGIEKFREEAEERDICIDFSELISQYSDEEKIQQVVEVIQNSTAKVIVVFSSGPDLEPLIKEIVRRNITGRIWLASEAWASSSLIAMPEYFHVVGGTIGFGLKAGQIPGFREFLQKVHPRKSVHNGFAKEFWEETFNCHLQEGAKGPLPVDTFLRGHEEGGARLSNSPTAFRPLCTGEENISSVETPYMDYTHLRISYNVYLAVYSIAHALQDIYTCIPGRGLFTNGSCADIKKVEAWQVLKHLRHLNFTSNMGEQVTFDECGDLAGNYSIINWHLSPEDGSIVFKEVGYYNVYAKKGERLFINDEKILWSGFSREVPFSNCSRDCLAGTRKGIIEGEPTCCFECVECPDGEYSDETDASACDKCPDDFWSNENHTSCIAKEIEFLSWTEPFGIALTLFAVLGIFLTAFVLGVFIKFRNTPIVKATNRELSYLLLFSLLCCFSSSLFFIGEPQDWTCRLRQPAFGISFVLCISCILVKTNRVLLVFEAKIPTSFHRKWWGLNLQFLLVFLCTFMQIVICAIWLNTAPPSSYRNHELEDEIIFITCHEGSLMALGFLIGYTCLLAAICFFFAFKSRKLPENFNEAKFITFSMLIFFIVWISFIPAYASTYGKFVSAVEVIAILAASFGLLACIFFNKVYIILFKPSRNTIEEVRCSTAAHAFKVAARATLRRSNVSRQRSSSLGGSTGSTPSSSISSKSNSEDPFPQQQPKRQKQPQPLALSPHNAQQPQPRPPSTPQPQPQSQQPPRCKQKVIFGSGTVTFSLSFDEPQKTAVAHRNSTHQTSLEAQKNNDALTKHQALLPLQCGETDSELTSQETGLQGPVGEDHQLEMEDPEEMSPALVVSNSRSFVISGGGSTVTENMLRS
The note with it: literature value; cited from earlier work.

Setting [2] is: extracellular NaCl 50 mM, read-out: EC50 for activation of SKCaR.
The mark [3] stands for this setting: extracellular NaCl 550 mM, read-out: EC50 for activation of SKCaR.

On to `[Ca+2]` [Ca2+, calcium], for which the “effect on sensitivity of SKCaR to Mg2+” value in the test with SKCaR (SEQ ID NO.: 2) (addition of 3 mM Ca2+, as a function of extracellular NaCl) is on record as “increases the sensitivity”. For the same compound, the EC50 is 1000 to 15000 µM in the test with SKCaR (SEQ ID NO.: 2) (depending on the extracellular concentration of NaCl, read-out: half maximal activation of SKCaR); less than 5000 µM in the test on SKCaR (SEQ ID NO.: 2) (setting [2]); roughly 18000 µM with SKCaR (SEQ ID NO.: 2) (setting [3]).

As for `[Gd+3]` [Gd^3+, gadolinium], in test [1] (100 μM agent), the “inhibition of water reabsorption (Jv)” value was found to be 75±5% and the “water reabsorption (Jv)” value is given as 32±18 μl/gm/hr. Further, in test [1], the “inhibition of water reabsorption” value is recorded as greater than 90%, the IC50 was 15 µM and the “reversibility of inhibitory effect on Jv” value is reported as “reversible”.

In the case of `[Mg+2]` [Mg2+, magnesium], the EC50 in the test with SKCaR (SEQ ID NO.: 2) (setting [2]) was less than 20000 µM; in the test with SKCaR (SEQ ID NO.: 2) (setting [3]), roughly 80000 µM. The “concentration range in which SKCaR is activated” value in the test with SKCaR (SEQ ID NO.: 2) (modulated by extracellular NaCl) lay in the range of 5 to 40 mM.

Consider `[Cl-].[Na+]` [NaCl], for which, in the test on SKCaR (SEQ ID NO.: 2) (increasing concentrations of NaCl), the “effect on sensitivity of SKCaR to Ca2+” value is listed as “reduce the sensitivity”.

Consider `NS(=O)(=O)c1cc2c(cc1Cl)NCNS2(=O)=O` [hydrochlorothiazide], for which, in test [1] (100 μM agent), the “inhibition of water reabsorption (Jv)” value is reported as 86±2% and the “water reabsorption (Jv)” value was 18±7 μl/gm/hr. Moreover, in test [1], the “inhibition of water reabsorption” value is greater than 85%.

For neomycin, the IC50 on mammalian CaRs was 50 µM and 60 to 70 µM. In test [1] (200 μM agent), the “inhibition of water reabsorption (Jv)” value is 52±4% and the “water reabsorption (Jv)” value was 63±10 μl/gm/hr. Also, in test [1], the “inhibition of water reabsorption” value is greater than 50%, the IC50 amounted to 150 µM and the “reversibility of inhibitory effect on Jv” value is given as “reversible”.
